# Laboratory results reported in patent publication US9517993B2, “Antagonists of the toll-like receptor 1/2 complex” (THE REGENTS OF THE UNIVERSITY OF COLORADO, a body corporate, priority 2012, dated 2016).
# Entries after “also recorded” stand apart in the source; their conditions may differ.
# Legend:
# TLR1/2 = TLR1/2 (Homo sapiens, UniProt O60603+Q15399); test: Fluorescence anisotropy competition assay with rhodamine-labeled Pam3CSK4; format: binding; design: His; TLR2 made in house; host or cells: baculovirus; Sf-9 for virus, High Five insect cells for expression (TLR2)
# Excerpt: The TLR2 protein was expressed in the baculovirus insect cell expression system using the methods described by Kuroki et al. See Iwaki et al., The extracellular Toll-like receptor 2 domain directly binds peptidoglycan derived from Staphylococcus aureus, J. Biol Chem (2002), 277:24315-20, which is herein incorporated by reference in its entirety. The activity of the TLR2 protein was validated by the fluorescence anisotropy assay. […] Good fitting (R2>0.98) inferred that compound 17 and Pam3CSK4 compete for the same binding site on the TLR1/2 dimeric surface.
# In 500 μL Tris buffer (pH=7.2) add 10 μL, (1 ng/mL) rhodamine-labeled Pam3CSK4, test the fluorescence anisotropy at excitation of 549 nm and emission of 566 nm (Horiba Fluorolog 3). And 5 μL (20 μM) TLR1 (R &D) and 5 μL, (20 μM) TLR2 was added into the above buffer, then retest the anisotropy. Following, compound 17 or compound 6 was added in the buffer from the concentration of 0 to 6 μM, and the fluorescence anisotropy was tested in the corresponding concentration.
# Fluorescence polarization experiments were performed at 25° C. using a Horiba Fluorolog-3 fluorometer. For direct binding measurements, serial dilutions of TLR1 (R&D, MN) and TLR2 were made in Tris buffer (pH=7.2), and an aliquot (10 μL) of 1 ng/mL rhodamine labeled Pam3CSK4, was added to a total volume of 500 μL. The competition binding solution was incubated for 30 minutes at 25° C. Serial dilutions of compound 17 or compound 6 were incubated with 20 μM TLR1, 20 μM TLR2 and rhodamine-labeled Pam3CSK4 for 30 min at room temperature.
# Regression analysis was carried out using Origin 7.5 (OriginLab) ligand binding macro module. […] Equation (1): y=min+(max−min)/(1+10^x-logIC50)(total binding, x=log concentration of and rhodamine-labeled Pam3CSK4, min=nonspecific binding, max=maximum binding in absence of ligand). Equation (2): Ki=IC50/(1+[L]/Kd) ([L]=concentration of rhodamine-labeled Pam3CSK4).
# RAW 264.7 cells = test: MTT cytotoxicity assay; format: cell-based, mouse; details: for cytotoxicity: at the active dose, RAW 264.7 cells, MTT
# Experimental: MTT Cytotoxicity Assay. In a 96-well plate 10,000 cells in 200 μL media (RPMI 1640 medium, supplemented with 10% FBS, penicillin (100 U/mL) and streptomycin ([…])) per well. Eight wells were left empty for blank controls. The plates were incubated (37° C., 5% CO2) overnight to allow the cells to attach to the wells. Add 20 ul (5 mg/mL) MTT solution to each well. Place on a shaking table, 150 rpm for 5 minutes, to thoroughly mix the MTT into the media. Incubate (37° C., 5% CO2) for 4 hours to allow the MTT to be metabolized. Dump off the media. Dry plate on paper towels to remove residue. Resuspend formazan (MTT metabolic product) in 200 ul DMSO. Place on a shaking table, 150 rpm for 5 minutes, to thoroughly mix the formazan into the solvent. When a clear difference could be seen by naked eye, results were read by spectrophotometer at 560 nm. Optical density should be directly correlated with cell quantity. Cytotoxicity (%) was determined using the following formula: Cytotoxicity (%) (1−[Compounds (OD560)−Background(OD560)]/[Control (OD560)−Background (OD560)])×100.
# [1] = test system: isolated microglial cells; test: IL-1β inhibition in isolated microglial cells incubated with Pam3CSK4; format: cell-based; details: Pam3CSK4 and compound for 2 hours, N=4, listed as CU-CPT22
# Experimental: In vitro testing was conducted using primary cells (isolated microglial cells) incubated with Pam3CSK4 and CU-CPT22 for 2 hours.
# pro-inflammatory mRNA = test: In vivo ICM co-administration with Pam3CSK4, hippocampal mRNA by real time RT-PCR; details: 5 ng or 50 ng ICM with Pam3CSK4 40 ng; hippocampus 2 hours after injection; listed as CU-CPT22
# Experimental: In vivo testing was conducted by the administration of Pam3CSK4 and CU-CPTP22. CU-CPT22 (5 ng or 50 ng), suspended in 5 μl sterile saline or vehicle, was co-administered with the TLR2 agonist Pam3CSK4 (40 ng/4 μl) to the animal via the cisterna magna (ICM) with a 1 μl air bubble separating the two reagents. Two hours after injection, the animal's hippocampus was collected for pro-inflammatory mRNA analysis using real time RT-PCR procedures. […] (N=8 for each group).
# [2] = test system: TNF-α and IL-1β production; test: Cytokine-specific ELISA in Pam3CSK4-activated RAW 264.7 cells; format: cell-based, mouse
# Experimental: RAW 264.7 cells were planted in 6-well plates at 1,000,000 cells per well with 3 mL of medium (RPMI 1640 medium, supplemented with 10% FBS, penicillin (100 U/mL) and streptomycin ([…])) and grown for 24 h at 37° C. in a 5% CO2 humidified incubator. After 24 h, non-adherent cells and media were removed and replaced with fresh RPMI 1640 medium (3 mL/well). Two wells of adherent macrophages were treated with Pam3CSK4 (Invivogen, 300 ng/mL) as the positive control, two wells was treated with 8 μM compound 17, and the other two wells ware treated with 8 μM compound DMSO. Another 6 well plate were treated with Pam3CSK4 (Invivogen, 300 ng/mL) and different concentration of 17. Plates were then incubated for an additional 24 h. […] Approximately 400 μL of supernatant were collected into new tubes, frozen at −80° C. until ready for cytokine measurement. The production of the cytokine interleukin-1β (IL-1β) and TNF-α was quantified with enzyme-linked immunosorbent assays (ELISA) using cytokine-specific capture antibodies, biotinylated monoclonal detection antibodies, and recombinant human cytokine standards according to commercially available ELISA kits from R&D Systems. The cytokine level in each sample was determined in duplicate.
# TLR1/2, sequence (Q15399 25-580 limits assumed): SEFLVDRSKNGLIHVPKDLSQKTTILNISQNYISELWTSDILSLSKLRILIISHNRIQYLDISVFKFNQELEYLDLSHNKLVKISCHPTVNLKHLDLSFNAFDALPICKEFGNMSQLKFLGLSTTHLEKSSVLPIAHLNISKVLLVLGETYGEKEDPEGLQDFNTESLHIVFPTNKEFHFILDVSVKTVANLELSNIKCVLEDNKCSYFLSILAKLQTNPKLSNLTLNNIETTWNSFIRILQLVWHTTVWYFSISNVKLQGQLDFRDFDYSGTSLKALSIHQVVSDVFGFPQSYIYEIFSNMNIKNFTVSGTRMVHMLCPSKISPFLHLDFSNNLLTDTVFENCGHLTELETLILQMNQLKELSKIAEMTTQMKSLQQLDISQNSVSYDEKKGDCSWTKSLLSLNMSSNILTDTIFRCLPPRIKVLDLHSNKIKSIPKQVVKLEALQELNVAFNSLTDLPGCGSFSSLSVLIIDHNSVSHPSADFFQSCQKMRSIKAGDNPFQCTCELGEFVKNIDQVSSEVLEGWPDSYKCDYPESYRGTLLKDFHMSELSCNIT
# TLR1/2, sequence (O60603 21-588 limits assumed): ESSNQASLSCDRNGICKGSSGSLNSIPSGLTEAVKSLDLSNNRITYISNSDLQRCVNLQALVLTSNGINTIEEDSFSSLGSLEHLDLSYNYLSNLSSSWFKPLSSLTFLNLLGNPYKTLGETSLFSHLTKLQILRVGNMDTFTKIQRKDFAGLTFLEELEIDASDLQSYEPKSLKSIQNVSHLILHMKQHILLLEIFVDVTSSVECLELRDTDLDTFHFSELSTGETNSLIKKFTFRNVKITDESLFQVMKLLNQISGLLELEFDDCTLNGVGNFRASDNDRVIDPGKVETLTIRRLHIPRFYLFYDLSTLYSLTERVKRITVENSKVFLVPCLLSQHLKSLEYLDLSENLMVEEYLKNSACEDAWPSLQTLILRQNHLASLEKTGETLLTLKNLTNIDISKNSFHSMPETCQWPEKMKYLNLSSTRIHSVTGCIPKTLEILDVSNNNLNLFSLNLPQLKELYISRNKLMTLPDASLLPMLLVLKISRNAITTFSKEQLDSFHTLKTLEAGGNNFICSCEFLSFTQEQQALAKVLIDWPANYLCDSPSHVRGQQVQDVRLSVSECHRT
compound,measurement,setting,value
"CCCCCCOC(=O)c1cc(O)c(=O)c2c(O)c(O)c(OC)cc2c1 [compound 17, Hexyl 3,4,6-trihydroxy-2-methoxy-5-oxo-5H-benzo[7]annulene-8-carboxylate]",anisotropy of rhodamine-labeled Pam3CSK4 with TLR1/2,TLR1/2; compound concentration increased to 6 μM,decreased the anisotropy to background levels
same,competition with Pam3CSK4 for TLR1/2 (in words),TLR1/2; fluorescence anisotropy,competitive binding
same,Ki,"TLR1/2; rhodamine-labeled Pam3CSK4, one-site competition model, read-out: inhibition constant (Ki), competition with Pam3CSK4 for binding to TLR1/2",410 nM
same,cytotoxicity,RAW 264.7 cells,no significant cytotoxicity
same,cytotoxicity,RAW 264.7 cells; listed as CU-CPT22,low toxicity
same,toxicity by MTT assay,RAW 264.7 cells; under 8 μM,no significant toxicity issues
same,inhibition of IL-1β,[1],Dose-dependent inhibition
same,IL-6 / M-6 mRNA expression (FIG. 10c),pro-inflammatory mRNA,strongly inhibits; also recorded: strong inhibition
same,TNF-α mRNA expression (FIG. 10b),pro-inflammatory mRNA,strongly inhibits; also recorded: strong inhibition
same,mRNA expression (FIG. 10a),pro-inflammatory mRNA,strongly inhibits; also recorded: strong inhibition
same,TNF-α inhibition (ELISA),"[2]; RAW 264.7, 300 ng/mL Pam3CSK4",TNF-α inhibition
same,IL-1β production (ELISA),"[2]; RAW 264.7, activated by 300 ng/mL Pam3CSK4",inhibited
